Tested on: PC3 Tumors (Human Prostate Carcinoma)
Assay: Treatment of PC3 xenograft tumors in athymic nude mice, tumor volume
Format: in vivo
Details: dosed twice/week
Description: • 1. Animals: • 46 Athymic nude mice (ENVIGO, male, 5-6 weeks old, R #: 4269, PO #: 236172) were used in this study. All mice were ear tagged for identification purposes. • 2. Animal Husbandry: • Upon arrival, animals were examined to ensure that they were healthy. The animals were housed in autoclaved solid floor polycarbonate cages. Housing and sanitation were performed. All animal handling was performed in a laminar flow hood. Animals were housed in filter-topped cages within a HEPA filtered clean room. • 3. Cell Culture and Implantation: • PC3 cell line was obtained from American Type Culture Collection (Manassas, VA). The cells were cultured in 75 cm^2 flask containing Eagle's Minimum Essential Medium supplemented with 10% fetal bovine calf serum (FBS) and incubated at 37° C. in humidified atmosphere of 5% CO2. As cells became 80% confluent, cultures were expanded to 150 cm^2 flasks, and expanded further until sufficient cells were available for injection. • Cancer cells were subcutaneously injected into right flank, 10 million cells/each mouse for PC3 cells. • 4. Assignment to Treatment Groups: • The animals were ear tagged for identification purposes. The animals were assigned to 4 study groups with 10 mice in each group based upon tumor volume. • 5. The mice were dosed twice a week for 6 weeks.
The Paclitaxel was stored at ambient temperature. Lipid nanoparticle (LNP) suspensions were stored at 4° C. Unopened vials were maintained in their original container at 4° C. until ready for use. 50 μl of LNP treatment was drawn via large bore needle (16G needle) from vial. All LNP treatments were allowed to reach room temperature by standing at ambient temperature. There was no heating. The large bore needle was replaced with a small-bore needle (25G) for tumor injection. • 6. Tumor Monitoring: • The xenograft tumors were measured three times a week with a digital caliper. • Tumor volumes were calculated using the formula:
Tumor Volume=length×width×width×½ • 7. Statistical Analysis: • Tumor sizes and body weights were analyzed using Student's t-test. P values <0.05 were considered as statistically significant.

CC(=O)O[C@H]1C(=O)[C@@]2(C)[C@H]([C@H](OC(=O)c3ccccc3)[C@]3(O)C[C@H](OC(=O)[C@H](O)[C@@H](NC(=O)c4ccccc4)c4ccccc4)C(C)=C1C3(C)C)[C@]1(OC(C)=O)CO[C@@H]1C[C@@H]2O [Paclitaxel]
Average Tumor Volume (Mean) (therapy day 0): 108.0 Mm^3
Average Tumor Volume (Mean) (therapy day 3): 105.7 Mm^3
Average Tumor Volume (Mean) (therapy day 5): 111.7 Mm^3
Average Tumor Volume (Mean) (therapy day 7): 129.6 Mm^3
Average Tumor Volume (Mean) (therapy day 10): 108.4 Mm^3
Average Tumor Volume (Mean) (therapy day 12): 98.1 Mm^3
Average Tumor Volume (Mean) (therapy day 14): 84.2 Mm^3
Average Tumor Volume (Mean) (therapy day 17): 66.6 Mm^3
Average Tumor Volume (Mean) (therapy day 19): 61.8 Mm^3
Average Tumor Volume (Mean) (therapy day 21): 56.6 Mm^3
Average Tumor Volume (Mean) (therapy day 24): 48.7 Mm^3
Average Tumor Volume (Mean) (therapy day 26): 34.6 Mm^3
Average Tumor Volume (Mean) (therapy day 28): 31.1 Mm^3
Average Tumor Volume (Mean) (therapy day 31): 26.6 Mm^3
Average Tumor Volume (Mean) (therapy day 35): 25.3 Mm^3
Average Tumor Volume (Mean) (therapy day 38): 24.4 Mm^3
Average Tumor Volume (Mean) (therapy day 40): 24.2 Mm^3
Average Tumor Volume (Mean) (therapy day 42): 27.2 Mm^3
Average Tumor Volume (Mean) (therapy day 45): 17.8 Mm^3
